The test system of one series is K562 CDX. In words: In vivo tumour inhibition of xenograft leukemia model K562. The conditions noted are these: K562 CDX in NOG mice; for Optimal T/C (value): day 17 after tumour transplantation, median tumour volume treated/control; for tumour growth inhibition: i.p. daily, T/C at day 17 after tumour transplantation. On the procedure:
In vivo activity against a number of CDX were evaluated in various nude or SCID mice. Tumour cells were inoculated subcutaneous (s.c) into the mice flank. Mice were randomized into groups when tumours were around 100-200 mm^3. A vehicle control group (2.5-4% DMSO, 5% EtOH, 20% PEG200 in saline) was part of each experiment. Treatment was administered intraperitoneally (i.p.) 3 times a week or daily (qd).
Body weight was measured before each treatment and treatments of individual mice was paused, when the body weight loss was >15%. Tumor volumes were measured 2×/week. Mice were individually sacrificed, when the tumor volume reached the volume specified in the laboratory internal SOP.
The tumour inhibition growth was assessed as the optimal T/C, where T represents the median tumour volume of the treated group and C represents the median tumour volume of the control (vehicle) group. Statistical analysis was performed using two way RM ANOVA with p values […] considered statistically significant.
Test compounds were evaluated for the in vivo inhibition activity against the chronic myelogenous leukemia CDX in NOG mice. 1×10^7 cells were injected s.c. into the left flank at day 0. Mice were stratified into groups of 10 mice each with a mean tumor volume of 109±35 mm^3 and the treatment was administered i.p. daily.

Series [1] relates to SCLC doxorubicin resistant cell line H69AR. Briefly: Cell viability assay (CellTiter-Blue/CellTiter-Glow). The series is classed as cell-based. The conditions noted are these: Homo sapiens, absolute IC50, 72 h. The essentials: (§1)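 Cells seeded, 24 h recovery, compound added for 72 h (37 °C, 5% CO2), viability measured by CellTiter-Blue or CellTiter-Glo. Absolute IC50 from sigmoidal 4-parameter curves of test-versus-control values.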

Another series has as its system T47D. The series is described as above. It counts as cell-based. Particulars: Homo sapiens; breast carcinoma cell line T47D; absolute IC50; 72 h. In a few lines:
as §1

The subject of a further series is CHP-134. Described as above. The series is classed as cell-based. Particulars: Homo sapiens; brain carcinoma cell line CHP-134; absolute IC50; 72 h. The essentials:
as §1

The target of another series is T1, ABL1-nonphosphorylated (Homo sapiens, UniProt P00519).
T1 construct: purchased Eurofins (KINOMEscan); host or cells: T7 phage in BL21-derived E. coli, or HEK-293
T1 sequence (P00519 whole entry): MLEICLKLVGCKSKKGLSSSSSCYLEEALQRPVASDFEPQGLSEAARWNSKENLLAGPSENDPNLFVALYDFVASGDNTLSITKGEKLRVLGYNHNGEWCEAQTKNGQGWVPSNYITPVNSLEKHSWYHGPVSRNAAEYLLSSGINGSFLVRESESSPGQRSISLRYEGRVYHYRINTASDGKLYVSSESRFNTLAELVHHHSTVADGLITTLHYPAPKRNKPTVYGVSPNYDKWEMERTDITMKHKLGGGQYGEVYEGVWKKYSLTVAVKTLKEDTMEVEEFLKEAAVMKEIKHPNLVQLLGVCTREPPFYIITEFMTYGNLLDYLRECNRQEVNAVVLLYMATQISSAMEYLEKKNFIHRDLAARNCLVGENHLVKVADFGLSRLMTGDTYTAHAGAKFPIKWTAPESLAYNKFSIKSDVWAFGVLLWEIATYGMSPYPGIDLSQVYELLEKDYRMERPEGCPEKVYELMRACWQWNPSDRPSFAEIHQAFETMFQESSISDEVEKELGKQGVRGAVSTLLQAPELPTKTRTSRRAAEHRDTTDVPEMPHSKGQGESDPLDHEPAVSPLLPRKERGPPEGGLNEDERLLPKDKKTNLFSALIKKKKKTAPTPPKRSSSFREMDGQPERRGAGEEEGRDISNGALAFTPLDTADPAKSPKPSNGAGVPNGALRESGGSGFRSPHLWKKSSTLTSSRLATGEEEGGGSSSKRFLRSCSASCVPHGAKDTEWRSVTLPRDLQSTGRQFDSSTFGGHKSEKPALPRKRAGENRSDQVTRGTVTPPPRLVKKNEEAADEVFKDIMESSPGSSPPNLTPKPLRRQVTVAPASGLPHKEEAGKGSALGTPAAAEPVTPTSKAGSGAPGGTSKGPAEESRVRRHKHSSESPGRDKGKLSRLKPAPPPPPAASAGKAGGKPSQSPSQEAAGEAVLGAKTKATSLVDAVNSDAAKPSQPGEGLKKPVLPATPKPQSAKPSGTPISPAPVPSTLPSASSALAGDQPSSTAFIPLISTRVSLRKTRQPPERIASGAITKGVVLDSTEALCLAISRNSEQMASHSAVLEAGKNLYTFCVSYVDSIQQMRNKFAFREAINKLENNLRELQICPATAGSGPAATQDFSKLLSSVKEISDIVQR
In words: KINOMEscan competition binding assay, Kd. Particulars: 11-point 3-fold dilution series. On the procedure:
(§2) Selected compounds were screened for kinase inhibition using the KINOMEscan™ assay (Eurofins) which is based on a competition binding assay that quantitatively measures the ability of a compound to compete with an immobilized, active-site directed ligand. The assay was performed by combining three components: DNA-tagged kinase; immobilized ligand; and the test compound. The ability of the test compound to compete with the immobilized ligand was measured via quantitative PCR of the DNA tag.
(§3) Kinase-tagged T7 phage strains were prepared in an E. coli host derived from the BL21 strain. E. coli were grown to log-phase and infected with T7 phage and incubated with shaking at 32° C. until lysis. The lysates were centrifuged and filtered to remove cell debris. The remaining kinases were produced in HEK-293 cells and subsequently tagged with DNA for qPCR detection. Streptavidin-coated magnetic beads were treated with biotinylated small molecule ligands for 30 minutes at room temperature to generate affinity resins for kinase assays. The liganded beads were blocked with excess biotin and washed with blocking buffer (SeaBlock (Pierce), 1% BSA, 0.05% Tween 20, 1 mM DTT) to remove unbound ligand and to reduce non-specific binding. Binding reactions were assembled by combining kinases, liganded affinity beads, and test compounds in 1× binding buffer (20% SeaBlock, 0.17×PBS, 0.05% Tween 20, 6 mM DTT). Test compounds were prepared as 111× stocks in 100% DMSO. Kds were determined using an 11-point 3-fold compound dilution series with three DMSO control points. All compounds for Kd measurements are distributed by acoustic transfer (non-contact dispensing) in 100% DMSO. The compounds were then diluted directly into the assays such that the final concentration of DMSO was 0.9%. All reactions performed in polypropylene 384-well plate. Each was a final volume of 0.02 ml. The assay plates were incubated at room temperature with shaking for 1 hour and the affinity beads were washed with wash buffer (1×PBS, 0.05% Tween 20). The beads were then resuspended in elution buffer (1×PBS, 0.05% Tween 20, 0.5 μM nonbiotinylated affinity ligand) and incubated at room temperature with shaking for 30 minutes. The kinase concentration in the eluates was measured by qPCR.
(§4) Binding constants (Kds) were calculated with a standard dose-response curve using the Hill equation: Response=Background+[Signal−Background/i+(Kd^Hill Slope/Dose^Hill Slope)]. The Hill Slope was set to −1. Curves were fitted using a non-linear least square fit with the Levenberg-Marquardt algorithm.

Series [2] concerns the target T2, ABL1(E255K)-phosphorylated (Homo sapiens, UniProt P00519, E255K).
T2 construct: purchased Eurofins (KINOMEscan); host or cells: T7 phage in BL21-derived E. coli, or HEK-293
Briefly: KINOMEscan competition binding assay, Kd. Particulars: 11-point 3-fold dilution series. On the procedure:
as §2, §3, §4

The target in the next series is T3, ABL1-phosphorylated (Homo sapiens, UniProt P00519).
T3 construct: purchased Eurofins (KINOMEscan); host or cells: T7 phage in BL21-derived E. coli, or HEK-293
T3 sequence (P00519 whole entry): as above
In words: KINOMEscan competition binding assay, Kd. The conditions noted are these: 11-point 3-fold dilution series. How it is done: as §2, §3, §4

Marks after values point to notes of the source that are not given here.

T2 sequence (P00519 whole entry E255K): as the sequence (P00519 whole entry) above, with E255K counted along it

For `O=c1cc(-c2ccc(CCCC[P+](c3ccccc3)(c3ccccc3)c3ccccc3)cc2)oc2c(O)c(O)ccc12` [SND118, 4-[4-(7,8-dihydroxy-4-oxo-chromen-2-yl)phenyl]butyltriphenyl-phosphonium bromide], in the series on K562 CDX (10 mg/kg/inj i.p. qd), the “Weight loss (%)” value is recorded as 8% and the “Optimal T/C (value)” value is 58***. For the same molecule, the tumour growth inhibition entry in the series with K562 CDX is reported as “significantly inhibited tumour growth”.
With `O=c1cc(-c2ccc(CCCC[P+](c3ccccc3)(c3ccccc3)c3ccccc3)cc2)oc2c3c(ccc12)OCO3.[Br-]` [SND123, 4-[4-(6-oxo-[1,3]dioxolo[4,5-h]chromen-8-yl)phenyl]butyl-triphenylphosphonium bromide], the IC50 in series [1] came to 11800 nM; in the series with T47D it was 1700 nM; with CHP-134, 1800 nM. In addition, the Kd was determined as 1300 nM at ABL1-nonphosphorylated, 970 nM in series [2] and 860 nM at ABL1-phosphorylated.
Turning to `COc1c(O)ccc2c(=O)cc(-c3ccc(CCCC[P+](c4ccccc4)(c4ccccc4)c4ccccc4)cc3)oc12.[Br-]` [SND140, (4-(4-(7-hydroxy-8-methoxy-4-oxo-4H-chromen-2-yl)phenyl)butyl)triphenylphosphonium bromide], the “Weight loss (%)” value in the series with K562 CDX (5 mg/kg/inj i.p. qd) was determined as 5%. Moreover, in the series with K562 CDX (5 mg/kg/inj i.p. qd), the “Optimal T/C (value)” value is on record as 69*. In addition, the tumour growth inhibition result in the series on K562 CDX is “significantly inhibited tumour growth”. Besides, half-maximal inhibition in series [1] (IC50) was put at 14600 nM. The values for the Kd (on ABL1-nonphosphorylated; in series [2]; on ABL1-phosphorylated) were 1500 nM, 660 nM and 700 nM, respectively.

The values are drawn from patent US20240209011A1, “HETEROAROMATIC PHOSPHONIUM SALTS FOR TREATING CANCER” (FLORATEK PHARMA S.A., priority 2021, published 2024).
